{"source": "paper PMC8661809", "about": "(Protein Science : A Publication of the Protein Society, 2021)", "target": "CTD of SARS‐CoV‐2 N protein (Severe acute respiratory syndrome coronavirus 2, UniProt P0DTC9)", "assay": "biochemical", "type": "binding", "data": [{"smiles": "Nc1ncnc2c1ncn2[C@@H]1O[C@H](COP(=O)(O)OP(=O)(O)OP(=O)(O)O)[C@@H](O)[C@H]1O", "note": "[ATP]", "values": [{"measurement": "Kd", "value": "1490 ± 280", "unit": "µM"}]}]}
